Where “and” joins values, the source holds several entries; their conditions need not be identical. Identical values can stand only once. Like-named read-outs stand apart in the source and are kept apart here.
Key:
mtrC-lacZ expression = assay type: cell-based, Neisseria gonorrhoeae; settings: for Miller units: single well; for mtrC-lacZ β-galactosidase activity, Mean: left block of sheet (mtrCDE)
MtrR W136A = biological target: T1, MtrR W136A (Neisseria gonorrhoeae, UniProt P39897, W136A); assay: biochemical; assay type: binding
T1 construct: Hexa-histidine tag with TEV protease cleavage site (N, cleaved yes); made in house; host or cells: E. coli Rosetta Gami B(DE3) pLysS
T1 sequence (P39897 whole entry W136A): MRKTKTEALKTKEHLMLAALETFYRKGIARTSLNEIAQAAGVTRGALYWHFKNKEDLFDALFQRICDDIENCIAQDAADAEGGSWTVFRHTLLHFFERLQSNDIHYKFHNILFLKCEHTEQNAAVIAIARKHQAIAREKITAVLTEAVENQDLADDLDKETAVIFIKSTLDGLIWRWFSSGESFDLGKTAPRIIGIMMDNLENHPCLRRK

[1] = second block of sheet (c39-c76), ΔmtrR + mtrR R176E in trans, 6.25 µM
[2] = second block of sheet (c39-c76), ΔmtrR + mtrR R176E in trans, 12.5 µM
[3] = second block of sheet (c39-c76), ΔmtrR + mtrR R176E in trans, 25 µM
[4] = second block of sheet (c39-c76), ΔmtrR + mtrR R176E in trans, 50 µM

C[C@]12CC[C@@H]3c4ccc(O)cc4CC[C@H]3[C@@H]1CC[C@@H]2O [β-Estradiol, β-estradiol]
β-galactosidase activity, individual replicate (mtrC-lacZ expression; mtrR WT in cis, 50 µM hormone, single replicate values, second (right) block): 113 Miller units and 109 Miller units
β-galactosidase activity, Miller units (single replicate) (mtrC-lacZ expression; mtrR WT in cis, 50 µM, first data set (c15-c36)): 196 Miller units and 185 Miller units and 161 Miller units
β-galactosidase activity, Miller units (single replicate) (mtrC-lacZ expression; mtrR WT in cis, 50 µM, second data set (c53-c74)): 92 Miller units and 82 Miller units
β-galactosidase activity, Mean (mtrC-lacZ expression; [1]): 80 Miller units
β-galactosidase activity, single replicate (mtrC-lacZ expression; [1]): 96 Miller units and 78 Miller units and 89 Miller units and 60 Miller units
β-galactosidase activity, Mean (mtrC-lacZ expression; [2]): 81 Miller units
β-galactosidase activity, single replicate (mtrC-lacZ expression; [2]): 106 Miller units and 86 Miller units and 70 Miller units and 62 Miller units
β-galactosidase activity, Mean (mtrC-lacZ expression; [3]): 94 Miller units
β-galactosidase activity, single replicate (mtrC-lacZ expression; [3]): 126 Miller units and 96 Miller units and 86 Miller units and 68 Miller units
β-galactosidase activity, Mean (mtrC-lacZ expression; [4]): 89 Miller units
β-galactosidase activity, single replicate (mtrC-lacZ expression; [4]): 107 Miller units and 93 Miller units and 84 Miller units and 73 Miller units
Miller units (mtrC-lacZ expression; plate rows 1-4, plate columns 1-6 (first strain), 6.25 µM hormone): 104 Miller units and 79 Miller units and 90 Miller units and 61 Miller units
Miller units (mtrC-lacZ expression; plate rows 1-4, plate columns 1-6 (first strain), 12.5 µM hormone): 145 Miller units and 115 Miller units and 112 Miller units and 81 Miller units
Miller units (mtrC-lacZ expression; plate rows 1-4, plate columns 1-6 (first strain), 25 µM hormone): 166 Miller units and 152 Miller units and 162 Miller units and 114 Miller units
Miller units (mtrC-lacZ expression; plate rows 1-4, plate columns 1-6 (first strain), 50 µM hormone): 161 Miller units and 192 Miller units and 168 Miller units and 126 Miller units
Miller units (mtrC-lacZ expression; plate rows 1-4, plate columns 7-12 (second strain), 12.5 µM hormone): 165 Miller units and 161 Miller units and 99 Miller units
Miller units (mtrC-lacZ expression; plate rows 1-4, plate columns 7-12 (second strain), 25 µM hormone): 232 Miller units and 177 Miller units and 156 Miller units and 133 Miller units
Miller units (mtrC-lacZ expression; plate rows 1-4, plate columns 7-12 (second strain), 50 µM hormone): 195 Miller units and 178 Miller units and 151 Miller units and 114 Miller units
β-galactosidase activity, mtrC-lacZ, Mean (mtrC-lacZ expression; strain WT (FA19/pLES94-mtrC), hormone 6.25 µM): 131 Miller units
β-galactosidase activity, mtrC-lacZ, Mean (mtrC-lacZ expression; strain WT (FA19/pLES94-mtrC), hormone 12.5 µM): 148 Miller units
β-galactosidase activity, mtrC-lacZ, Mean (mtrC-lacZ expression; strain WT (FA19/pLES94-mtrC), hormone 25 µM): 177 Miller units
β-galactosidase activity, mtrC-lacZ, Mean (mtrC-lacZ expression; strain WT (FA19/pLES94-mtrC), hormone 50 µM): 224 Miller units
mtrC-lacZ β-galactosidase activity, Mean (mtrC-lacZ expression; strain WT, 6.25 µM hormone): 137 Miller units
β-galactosidase activity, Mean (mtrC-lacZ expression; strain WT, 6.25 µM hormone, second (right) untitled block of sheet Figure S10 (mtrC)): 44 Miller units
mtrC-lacZ β-galactosidase activity, Mean (mtrC-lacZ expression; strain WT, 12.5 µM hormone): 155 Miller units
β-galactosidase activity, Mean (mtrC-lacZ expression; strain WT, 12.5 µM hormone, second (right) untitled block of sheet Figure S10 (mtrC)): 54 Miller units
mtrC-lacZ β-galactosidase activity, Mean (mtrC-lacZ expression; strain WT, 25 µM hormone): 162 Miller units
β-galactosidase activity, Mean (mtrC-lacZ expression; strain WT, 25 µM hormone, second (right) untitled block of sheet Figure S10 (mtrC)): 60 Miller units
mtrC-lacZ β-galactosidase activity, Mean (mtrC-lacZ expression; strain WT, 50 µM hormone): 182 Miller units
β-galactosidase activity, Mean (mtrC-lacZ expression; strain WT, 50 µM hormone, second (right) untitled block of sheet Figure S10 (mtrC)): 99 Miller units
activation of mtrC (mtrC-lacZ expression; strain producing MtrR R176E): clearly weaker activation
β-galactosidase activity, mtrC-lacZ, Mean (mtrC-lacZ expression; strain ΔmtrR (FA19 ∆mtrR/pLES94-mtrC), hormone 6.25 µM): 210 Miller units
β-galactosidase activity, mtrC-lacZ, Mean (mtrC-lacZ expression; strain ΔmtrR (FA19 ∆mtrR/pLES94-mtrC), hormone 12.5 µM): 218 Miller units
β-galactosidase activity, mtrC-lacZ, Mean (mtrC-lacZ expression; strain ΔmtrR (FA19 ∆mtrR/pLES94-mtrC), hormone 25 µM): 243 Miller units
β-galactosidase activity, mtrC-lacZ, Mean (mtrC-lacZ expression; strain ΔmtrR (FA19 ∆mtrR/pLES94-mtrC), hormone 50 µM): 255 Miller units
β-galactosidase activity, mtrC-lacZ, Mean (mtrC-lacZ expression; strain ΔmtrR + mtrR D171A (pGCC3-mtrR D171A), hormone 6.25 µM): 149 Miller units
β-galactosidase activity, mtrC-lacZ, Mean (mtrC-lacZ expression; strain ΔmtrR + mtrR D171A (pGCC3-mtrR D171A), hormone 12.5 µM): 157 Miller units
β-galactosidase activity, mtrC-lacZ, Mean (mtrC-lacZ expression; strain ΔmtrR + mtrR D171A (pGCC3-mtrR D171A), hormone 25 µM): 167 Miller units
β-galactosidase activity, mtrC-lacZ, Mean (mtrC-lacZ expression; strain ΔmtrR + mtrR D171A (pGCC3-mtrR D171A), hormone 50 µM): 163 Miller units
mtrC-lacZ β-galactosidase activity, Mean (mtrC-lacZ expression; strain ΔmtrR + mtrR R176E, 6.25 µM hormone): 194 Miller units
β-galactosidase activity, Mean (mtrC-lacZ expression; strain ΔmtrR + mtrR R176E, 6.25 µM hormone, second (right) untitled block of sheet Figure S10 (mtrC)): 80 Miller units
mtrC-lacZ β-galactosidase activity, Mean (mtrC-lacZ expression; strain ΔmtrR + mtrR R176E, 12.5 µM hormone): 205 Miller units
β-galactosidase activity, Mean (mtrC-lacZ expression; strain ΔmtrR + mtrR R176E, 12.5 µM hormone, second (right) untitled block of sheet Figure S10 (mtrC)): 81 Miller units
mtrC-lacZ β-galactosidase activity, Mean (mtrC-lacZ expression; strain ΔmtrR + mtrR R176E, 25 µM hormone): 197 Miller units
β-galactosidase activity, Mean (mtrC-lacZ expression; strain ΔmtrR + mtrR R176E, 25 µM hormone, second (right) untitled block of sheet Figure S10 (mtrC)): 94 Miller units
mtrC-lacZ β-galactosidase activity, Mean (mtrC-lacZ expression; strain ΔmtrR + mtrR R176E, 50 µM hormone): 269 Miller units
β-galactosidase activity, Mean (mtrC-lacZ expression; strain ΔmtrR + mtrR R176E, 50 µM hormone, second (right) untitled block of sheet Figure S10 (mtrC)): 89 Miller units
β-galactosidase activity, mtrC-lacZ, Mean (mtrC-lacZ expression; strain ΔmtrR + mtrR WT (pGCC3-mtrR), hormone 6.25 µM): 116 Miller units
β-galactosidase activity, mtrC-lacZ, Mean (mtrC-lacZ expression; strain ΔmtrR + mtrR WT (pGCC3-mtrR), hormone 12.5 µM): 113 Miller units
β-galactosidase activity, mtrC-lacZ, Mean (mtrC-lacZ expression; strain ΔmtrR + mtrR WT (pGCC3-mtrR), hormone 25 µM): 138 Miller units
β-galactosidase activity, mtrC-lacZ, Mean (mtrC-lacZ expression; strain ΔmtrR + mtrR WT (pGCC3-mtrR), hormone 50 µM): 158 Miller units
mtrC-lacZ β-galactosidase activity, Mean (mtrC-lacZ expression; strain ΔmtrR + mtrR WT, 6.25 µM hormone): 106 Miller units
β-galactosidase activity, Mean (mtrC-lacZ expression; strain ΔmtrR + mtrR WT, 6.25 µM hormone, second (right) untitled block of sheet Figure S10 (mtrC)): 17 Miller units
mtrC-lacZ β-galactosidase activity, Mean (mtrC-lacZ expression; strain ΔmtrR + mtrR WT, 12.5 µM hormone): 117 Miller units
β-galactosidase activity, Mean (mtrC-lacZ expression; strain ΔmtrR + mtrR WT, 12.5 µM hormone, second (right) untitled block of sheet Figure S10 (mtrC)): 27 Miller units
mtrC-lacZ β-galactosidase activity, Mean (mtrC-lacZ expression; strain ΔmtrR + mtrR WT, 25 µM hormone): 136 Miller units
β-galactosidase activity, Mean (mtrC-lacZ expression; strain ΔmtrR + mtrR WT, 25 µM hormone, second (right) untitled block of sheet Figure S10 (mtrC)): 36 Miller units
mtrC-lacZ β-galactosidase activity, Mean (mtrC-lacZ expression; strain ΔmtrR + mtrR WT, 50 µM hormone): 154 Miller units
β-galactosidase activity, Mean (mtrC-lacZ expression; strain ΔmtrR + mtrR WT, 50 µM hormone, second (right) untitled block of sheet Figure S10 (mtrC)): 45 Miller units
mtrC-lacZ β-galactosidase activity, Mean (mtrC-lacZ expression; strain ΔmtrR, 6.25 µM hormone): 273 Miller units
β-galactosidase activity, Mean (mtrC-lacZ expression; strain ΔmtrR, 6.25 µM hormone, second (right) untitled block of sheet Figure S10 (mtrC)): 94 Miller units
mtrC-lacZ β-galactosidase activity, Mean (mtrC-lacZ expression; strain ΔmtrR, 12.5 µM hormone): 263 Miller units
β-galactosidase activity, Mean (mtrC-lacZ expression; strain ΔmtrR, 12.5 µM hormone, second (right) untitled block of sheet Figure S10 (mtrC)): 89 Miller units
mtrC-lacZ β-galactosidase activity, Mean (mtrC-lacZ expression; strain ΔmtrR, 25 µM hormone): 239 Miller units
β-galactosidase activity, Mean (mtrC-lacZ expression; strain ΔmtrR, 25 µM hormone, second (right) untitled block of sheet Figure S10 (mtrC)): 98 Miller units
mtrC-lacZ β-galactosidase activity, Mean (mtrC-lacZ expression; strain ΔmtrR, 50 µM hormone): 257 Miller units
β-galactosidase activity, Mean (mtrC-lacZ expression; strain ΔmtrR, 50 µM hormone, second (right) untitled block of sheet Figure S10 (mtrC)): 101 Miller units
β-galactosidase activity, Miller units (single replicate) (mtrC-lacZ expression; ΔmtrR + mtrR WT in trans, 6.25 µM, first data set (c15-c36)): 87 Miller units and 127 Miller units
β-galactosidase activity, Miller units (single replicate) (mtrC-lacZ expression; ΔmtrR + mtrR WT in trans, 6.25 µM, second data set (c53-c74)): 22 Miller units and 9 Miller units and 12 Miller units and 27 Miller units
β-galactosidase activity, Miller units (single replicate) (mtrC-lacZ expression; ΔmtrR + mtrR WT in trans, 12.5 µM, first data set (c15-c36)): 84 Miller units and 130 Miller units
β-galactosidase activity, Miller units (single replicate) (mtrC-lacZ expression; ΔmtrR + mtrR WT in trans, 12.5 µM, second data set (c53-c74)): 33 Miller units and 23 Miller units and 27 Miller units
β-galactosidase activity, Miller units (single replicate) (mtrC-lacZ expression; ΔmtrR + mtrR WT in trans, 25 µM, first data set (c15-c36)): 124 Miller units and 127 Miller units
β-galactosidase activity, Miller units (single replicate) (mtrC-lacZ expression; ΔmtrR + mtrR WT in trans, 25 µM, second data set (c53-c74)): 45 Miller units and 34 Miller units and 39 Miller units and 27 Miller units
β-galactosidase activity, Miller units (single replicate) (mtrC-lacZ expression; ΔmtrR + mtrR WT in trans, 50 µM, first data set (c15-c36)): 156 Miller units and 168 Miller units
β-galactosidase activity, Miller units (single replicate) (mtrC-lacZ expression; ΔmtrR + mtrR WT in trans, 50 µM, second data set (c53-c74)): 51 Miller units and 40 Miller units and 39 Miller units and 48 Miller units
β-galactosidase activity, Miller units (single replicate) (mtrC-lacZ expression; ΔmtrR, 6.25 µM, first data set (c15-c36)): 214 Miller units and 261 Miller units and 306 Miller units and 310 Miller units
β-galactosidase activity, Miller units (single replicate) (mtrC-lacZ expression; ΔmtrR, 6.25 µM, second data set (c53-c74)): 115 Miller units and 96 Miller units and 95 Miller units and 69 Miller units
β-galactosidase activity, Miller units (single replicate) (mtrC-lacZ expression; ΔmtrR, 12.5 µM, first data set (c15-c36)): 280 Miller units and 263 Miller units and 247 Miller units and 264 Miller units
β-galactosidase activity, Miller units (single replicate) (mtrC-lacZ expression; ΔmtrR, 12.5 µM, second data set (c53-c74)): 97 Miller units and 87 Miller units and 92 Miller units and 78 Miller units
β-galactosidase activity, Miller units (single replicate) (mtrC-lacZ expression; ΔmtrR, 25 µM, first data set (c15-c36)): 208 Miller units and 262 Miller units and 216 Miller units and 271 Miller units
β-galactosidase activity, Miller units (single replicate) (mtrC-lacZ expression; ΔmtrR, 25 µM, second data set (c53-c74)): 139 Miller units and 80 Miller units and 83 Miller units and 89 Miller units
β-galactosidase activity, Miller units (single replicate) (mtrC-lacZ expression; ΔmtrR, 50 µM, first data set (c15-c36)): 240 Miller units and 239 Miller units and 224 Miller units and 327 Miller units
β-galactosidase activity, Miller units (single replicate) (mtrC-lacZ expression; ΔmtrR, 50 µM, second data set (c53-c74)): 128 Miller units and 93 Miller units and 88 Miller units and 96 Miller units
Kd (MtrR W136A): 1060 ± 40 nM
